Values after ≈ are worked out from the molar mass of the structure shown.
Legend:
Type in all cases: functional
[1] = tested on: Bacillus subtilis; test: Antibacterial activity against Bacillus subtilis RIK543 after 15 hrs; settings: RIK543, 15 h
[2] = tested on: Bacillus subtilis; test: Antibacterial activity against wild-type Bacillus subtilis 168 after 15 hrs; settings: subsp. subtilis str. 168, 15 h
[3] = tested on: Bacillus subtilis; test: Antibacterial activity against Bacillus subtilis isolate 3 harboring 301C-T KsgA and expressing amino acid exchange at Gln101-stop codon in KsgA gene
[4] = tested on: Bacillus subtilis; test: Antibacterial activity against Bacillus subtilis isolate 11 harboring 274-295 deficient KsgA mutant and expressing amino acid exchange at P92F, Thr 97- stop codon in KsgA gene
[5] = tested on: Bacillus subtilis; test: Antibacterial activity against Bacillus subtilis isolate 7 harboring 198T-TT KsgA mutant and expressing amino acid exchange at A67C, Glu 77- stop codon in KsgA gene
[6] = tested on: Bacillus subtilis; test: Antibacterial activity against Bacillus subtilis isolate 10 harboring 706C-T KsgA mutant and expressing amino acid exchange at R236C in KsgA gene
[7] = tested on: Bacillus subtilis; test: Antibacterial activity against Bacillus subtilis isolate 14 harboring 608C-T KsgA mutant and expressing amino acid exchange at S203F in KsgA gene
[8] = tested on: Bacillus subtilis; test: Antibacterial activity against Bacillus subtilis isolate 8 harboring 515G-GGG KsgA mutant and expressing amino acid exchange at S173A, Met 188 -stop codon in KsgA gene
[9] = tested on: Bacillus subtilis; test: Antibacterial activity against Bacillus subtilis isolate KO-847 KsgA mutant after 2 days; settings: isolate KO-847, 48 h
[10] = tested on: Bacillus subtilis; test: Antibacterial activity against Bacillus subtilis isolate KO-879 KsgA mutant and harboring 236G-T speD mutant and expressing amino acid exchange at S79I in speD gene after 2 days; settings: isolate KO-879, 48 h
[11] = tested on: Bacillus subtilis; test: Antibacterial activity against Bacillus subtilis isolate 16 harboring 181G-GG KsgA mutant and expressing amino acid exchange at A61G, Glu 77- stop codon in KsgA gene
[12] = tested on: Bacillus subtilis; test: Antibacterial activity against Bacillus subtilis isolate 18 harboring 495-525 deficient KsgA mutant and expressing amino acid exchange at N165E, Ala 177- stop codon in KsgA gene
[13] = tested on: Bacillus subtilis; test: Antibacterial activity against Bacillus subtilis isolate 6 harboring 272C-G KsgA mutant and expressing amino acid exchange at Ser 91 -stop codon in KsgA gene
[14] = tested on: Escherichia coli; test: Antibacterial activity against Escherichia coli BW25113 after 15 hrs; settings: BW25113, 15 h
[15] = tested on: Bacillus subtilis; test: Antibacterial activity against Bacillus subtilis isolate KO-877 KsgA mutant and harboring 191A-T speD mutant and expressing amino acid exchange at G64Vin speD gene after 2 days; settings: isolate KO-877, 48 h
[16] = tested on: Bacillus subtilis; test: Antibacterial activity against Bacillus subtilis isolate KO-894 speD mutant after 2 days; settings: isolate KO-894, 48 h
[17] = tested on: Bacillus subtilis; test: Antibacterial activity against Bacillus subtilis isolate 2 harboring 708-717 deficient KsgA and expressing amino acid exchange at K235S, Leu240-stop codon in KsgA gene
[18] = tested on: Bacillus subtilis; test: Antibacterial activity against Bacillus subtilis isolate KO-878 KsgA mutant and harboring 193T-A speD mutant and expressing amino acid exchange at S65T in speD gene after 2 days; settings: isolate KO-878, 48 h
[19] = tested on: Bacillus subtilis; test: Antibacterial activity against Bacillus subtilis isolate 17 harboring 709-850 deficient KsgA mutant and expressing amino acid exchange at K237L in KsgA gene
[20] = tested on: Bacillus subtilis; test: Antibacterial activity against Bacillus subtilis isolate 5 harboring 478-492 deficient KsgA and expressing amino acid exchange at Glu 160, Ala 164 deletion in KsgA gene
[21] = tested on: Bacillus subtilis; test: Antibacterial activity against Bacillus subtilis isolate 1 harboring 253-261 deficient KsgA and expressing amino acid exchange at 85-87 Ile, Leu, Lys-deletionin KsgA gene
[22] = tested on: Bacillus subtilis; test: Antibacterial activity against Bacillus subtilis isolate 12 harboring 597-615 deficient KsgA mutant and expressing amino acid exchange at N200F, Asp 202- stop codon in KsgA gene
[23] = tested on: Bacillus subtilis; test: Antibacterial activity against Bacillus subtilis isolate 4 harboring 709-850 deficient KsgA and expressing amino acid exchange at K237L in KsgA gene
[24] = tested on: Bacillus subtilis; test: Antibacterial activity against Bacillus subtilis isolate KO-876 KsgA mutant and harboring 22C-GT speD mutant after 2 days; settings: isolate KO-876, 48 h
[25] = tested on: Bacillus subtilis; test: Antibacterial activity against Bacillus subtilis isolate 15 harboring 324C-CTC KsgA mutant and expressing amino acid exchange at K109S, Val 125 - stop codon in KsgA gene
[26] = tested on: Bacillus subtilis; test: Antibacterial activity against Bacillus subtilis isolate KO-875 KsgA mutant and harboring 19G-T speD mutant and expressing amino acid exchange at G7Win speD gene after 2 days; settings: isolate KO-875, 48 h
[27] = tested on: Bacillus subtilis; test: Antibacterial activity against Bacillus subtilis isolate 19 harboring 230A-G KsgA mutant and expressing amino acid exchange at A61G, E77K in KsgA gene
[28] = tested on: Bacillus subtilis; test: Antibacterial activity against Bacillus subtilis isolate 13 harboring 393C-G KsgA mutant and expressing amino acid exchange at Tyr 131- stop codon in KsgA gene
[29] = tested on: Bacillus subtilis; test: Antibacterial activity against Bacillus subtilis isolate 9 harboring 515G-GG KsgA mutant and expressing amino acid exchange at S173L,Asn 200 -stop codon in KsgA gene

Question: Which MIC [1] does the source give for `CO[C@H]1/C=C/O[C@@]2(C)Oc3c(C)c(O)c4c(O)c(c(/C=N/N5CCN(C)CC5)c(O)c4c3C2=O)NC(=O)/C(C)=C\C=C\[C@H](C)[C@H](O)[C@@H](C)[C@@H](O)[C@@H](C)[C@H](OC(C)=O)[C@@H]1C` [RIFAMPIN] here?
Answer: The MIC was 0.01 µg/mL (≈ 1.22e-05 mM).

Question: And the MIC [2]?
Answer: Its MIC is 0.1 µg/mL (≈ 0.000122 mM).

Question: What does the source list for `CN[C@@H]1[C@H](O[C@H]2[C@H](O[C@H]3[C@H](O)[C@@H](O)[C@H](N=C(N)N)[C@@H](O)[C@@H]3N=C(N)N)O[C@@H](C)[C@]2(O)C=O)O[C@@H](CO)[C@H](O)[C@H]1O` [STREPTOMYCIN]?
Answer: MIC [1]: 5 µg/mL (≈ 0.0086 mM); MIC [2]: 15 µg/mL (≈ 0.0258 mM)

Question: For `C=C(NC(=O)C(=C)NC(=O)c1csc(C2=N[C@@H]3c4csc(n4)[C@H]4NC(=O)c5csc(n5)[C@H]([C@](C)(O)[C@@H](C)O)NC(=O)[C@H]5CSC(=N5)/C(=C/C)NC(=O)[C@H]([C@@H](C)O)NC(=O)c5csc(n5)[C@]3(CC2)NC(=O)[C@H](C)NC(=O)C(=C)NC(=O)[C@H](C)NC(=O)[C@H]([C@@H](C)CC)N[C@@H]2C=Cc3c([C@H](C)O)cc(nc3[C@H]2O)C(=O)O[C@@H]4C)n1)C(N)=O` [THIOSTREPTON], which MIC [1] is on record?
Answer: The MIC was 0.02 µg/mL (≈ 1.2e-05 mM).

Question: And the MIC [2]?
Answer: Its MIC is 0.04 µg/mL (≈ 2.4e-05 mM).

Question: Which MIC [3] does the source give for `C[C@H]1O[C@H](O[C@H]2[C@H](O)[C@@H](O)[C@@H](O)[C@H](O)[C@@H]2O)[C@@H](N)C[C@@H]1NC(=N)C(=O)O` [KASUGAMYCIN] here?
Answer: The MIC was 1500 µg/mL (≈ 3.95 mM).

Question: And the MIC [4]?
Answer: Its MIC is 1500 µg/mL (≈ 3.95 mM).

Question: What about the MIC [5] of the same compound?
Answer: Its MIC is 1500 µg/mL (≈ 3.95 mM).

Question: And the MIC [6]?
Answer: The MIC was 1500 µg/mL (≈ 3.95 mM).

Question: What about the MIC [1] of the same compound?
Answer: Its MIC is 500 µg/mL (≈ 1.32 mM).

Question: What about the MIC [7] of the same compound?
Answer: The MIC was 1500 µg/mL (≈ 3.95 mM).

Question: What about the MIC [8] of the same compound?
Answer: The MIC was 1500 µg/mL (≈ 3.95 mM).

Question: What about the MIC [9] of the same compound?
Answer: Its MIC is 5000 µg/mL (≈ 13.2 mM).

Question: And the MIC [10]?
Answer: The MIC was 15000 µg/mL (≈ 39.5 mM).

Question: What about the MIC [11] of the same compound?
Answer: Its MIC is 1500 µg/mL (≈ 3.95 mM).

Question: What about the MIC [12] of the same compound?
Answer: The MIC was 1500 µg/mL (≈ 3.95 mM).

Question: And the MIC [13]?
Answer: The MIC was 1500 µg/mL (≈ 3.95 mM).

Question: And the MIC [14]?
Answer: Its MIC is 200 µg/mL (≈ 0.527 mM).

Question: And the MIC [15]?
Answer: The MIC was 15000 µg/mL (≈ 39.5 mM).

Question: What about the MIC [16] of the same compound?
Answer: Its MIC is 4000 µg/mL (≈ 10.5 mM).

Question: And the MIC [17]?
Answer: The MIC was 1500 µg/mL (≈ 3.95 mM).

Question: And the MIC [18]?
Answer: Its MIC is 15000 µg/mL (≈ 39.5 mM).

Question: What about the MIC [19] of the same compound?
Answer: Its MIC is 1500 µg/mL (≈ 3.95 mM).

Question: What about the MIC [20] of the same compound?
Answer: The MIC was 1500 µg/mL (≈ 3.95 mM).

Question: And the MIC [21]?
Answer: The MIC was 1500 µg/mL (≈ 3.95 mM).

Question: And the MIC [22]?
Answer: The MIC was 1500 µg/mL (≈ 3.95 mM).

Question: And the MIC [23]?
Answer: Its MIC is 1500 µg/mL (≈ 3.95 mM).

Question: And the MIC [2]?
Answer: The MIC was 1500 µg/mL (≈ 3.95 mM).

Question: What about the MIC [24] of the same compound?
Answer: Its MIC is 15000 µg/mL (≈ 39.5 mM).

Question: What about the MIC [25] of the same compound?
Answer: The MIC was 1500 µg/mL (≈ 3.95 mM).

Question: What about the MIC [26] of the same compound?
Answer: Its MIC is 15000 µg/mL (≈ 39.5 mM).

Question: What about the MIC [27] of the same compound?
Answer: Its MIC is 1500 µg/mL (≈ 3.95 mM).

Question: And the MIC [28]?
Answer: The MIC was 1500 µg/mL (≈ 3.95 mM).

Question: What about the MIC [29] of the same compound?
Answer: Its MIC is 1500 µg/mL (≈ 3.95 mM).

From ChEMBL document CHEMBL1629584, “Inactivation of KsgA, a 16S rRNA methyltransferase, causes vigorous emergence of mutants with high-level kasugamycin resistance” (2009)
